System: Erdnußlectin (Arachis Hypogea)
Experiment: Inhibition of peanut lectin haemagglutination of neuraminidase-treated erythrocytes
Assay type: cell-based
Settings: compound at 0,5 mg/ml; erythrocytes as 2,5% suspension; lectin titer 2-^8
Experimental: Inhibition von Erdnußlectin (Arachis Hypogea) mit Verbindung 29
Die Hämagglutination von Neuraminidase(VCN)-behandelten Erythrozyten (als 2,5%-ige Suspension) mit Erdunßlectin (Titer 2-^8) wurde vollständig mit Verbindung 29 (0,5 mg/ml) inhibiert.

Q: With `CC(=O)N[C@H]1[C@@H](OC(=O)N[C@@H](CO)C(=O)NCCCCCC(=O)O)O[C@H](CO)[C@H](O)[C@@H]1O[C@@H]1O[C@H](CO)[C@H](O)[C@H](O)[C@H]1O` [Verbindung 29, N-((2-Acetamido-2-desoxy-3-0-(8-D-galactopyranosyl)-alpha-D-galactopyranosyl)-oxycarbonyl)-L-seryl-S-carboxy-pentylamid] as the compound, how does the “Hämagglutination von Neuraminidase(VCN)-behandelten Erythrozyten mit Erdunßlectin inhibiert” value read?
A: vollständig
